*1 amine or outer side, *2 acyl side, *3 side chain or, on linkers, in order; H or OH if unused. Where a SMILES comes first, the peptide text is derived from it. Side-chain parts run from the residue outwards. [ ]: non-standard residue; d: D form. The star is where a group is joined. C20 diacid = O=C(O)CCCCCCCCCCCCCCCCCCC(=O)*; C18 diacid = O=C(O)CCCCCCCCCCCCCCCCC(=O)*; γGlu = O=C(O)[C@H](CCC(=O)[*:2])N[*:1]; 4Pal = N[C@@H](Cc1ccncc1)C(=O)O; AEEA = NCCOCCOCC(=O)O; Aib = CC(C)(N)C(=O)O
Experiments:
[1] = target: T1, human GcgR (Homo sapiens, UniProt P47871); assay: [125I]-Glucagon binding, SPA with WGA beads, 0.1% bacitracin; conditions: geometric mean, read-out: hGcgR Ki
T1 construct: expressed in transfected cells; crude membranes
T1 sequence (P47871 26-477): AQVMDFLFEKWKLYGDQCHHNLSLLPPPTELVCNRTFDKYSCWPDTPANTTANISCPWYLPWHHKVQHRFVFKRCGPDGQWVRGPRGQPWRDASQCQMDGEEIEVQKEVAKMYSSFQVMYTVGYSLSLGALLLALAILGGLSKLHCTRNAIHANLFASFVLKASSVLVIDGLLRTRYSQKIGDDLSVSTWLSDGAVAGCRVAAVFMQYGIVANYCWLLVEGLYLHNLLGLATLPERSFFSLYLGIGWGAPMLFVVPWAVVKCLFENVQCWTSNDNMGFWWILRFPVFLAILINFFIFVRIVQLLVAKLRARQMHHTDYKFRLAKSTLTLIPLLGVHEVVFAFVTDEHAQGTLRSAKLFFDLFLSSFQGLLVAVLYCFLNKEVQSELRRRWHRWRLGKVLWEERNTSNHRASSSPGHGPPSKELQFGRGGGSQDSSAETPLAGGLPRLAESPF
Protocol: Stably transfected cell lines are prepared by subcloning receptor cDNA into a pcDNA3 expression plasmid and transfected into human embryonic kidney (HEK) 293 (hGcgR and hGLP-1R) or Chinese Hamster Ovary (CHO) (hGIPR) cells followed by selection with Geneticin (hGLP-1R and hGIPR) or hygromycin B (hGcgR).
Two methods are used for the preparation of crude cell membranes.
Method 1: Frozen cell pellets are lysed on ice in hypotonic buffer containing 50 mM Tris HCl, pH 7.5, and Roche Complete™ Protease Inhibitors with EDTA. The cell suspension is disrupted using a glass Potter-Elvehjem homogenizer fitted with a Teflon® pestle for 25 strokes. The homogenate is centrifuged at 4° C. at 1100× g for 10 minutes. The supernatant is collected and stored on ice while the pellets are resuspended in homogenization buffer and rehomogenized as described above. The homogenate is centrifuged at 1100× g for 10 minutes. The second supernatant is combined with the first supernatant and centrifuged at 35000× g for 1 hour at 4° C. The resulting membrane pellet is resuspended in homogenization buffer containing protease inhibitors at approximately 1 to 3 mg/mL, quick frozen in liquid nitrogen and stored as aliquots in a −80° C. freezer until use.
Method 2: Frozen cell pellets are lysed on ice in hypotonic buffer containing 50 mM Tris HCl, pH 7.5, 1 mM MgCl2, Roche Complete™ EDTA-free Protease Inhibitors and 25 units/mL DNAse I (Invitrogen). The cell suspension is disrupted using a glass Potter-Elvehjem homogenizer fitted with a Teflon® pestle for 20 to 25 strokes. The homogenate is centrifuged at 4° C. at 1800× g for 15 minutes. The supernatant is collected and stored on ice while the pellets are resuspended in homogenization buffer (without DNAse I) and rehomogenized as described above. The homogenate is centrifuged at 1800× g for 15 minutes. The second supernatant is combined with the first supernatant and centrifuged an additional time at 1800× g for 15 minutes. The overall supernatant is then centrifuged at 25000× g for 30 minutes at 4° C. The resulting membrane pellet is resuspended in homogenization buffer (without DNAse I) containing protease inhibitors at approximately 1 to 3 mg/mL and stored as aliquots in a −80° C. freezer until use.
The human Geg receptor binding assays are performed using a Scintillation Proximity Assay (SPA) format with wheat germ agglutinin (WGA) beads (Perkin Elmer). The binding buffer contains 25 mM 4-(2-hydroxyethyl)-1-piperazineethanesulfonic acid (HEPES), pH 7.4, 2.5 mM CaCl2), 1 mM MgCl2, 0.1% (w/v) bacitracin (Research Products), 0.003% (w/v) Polyoxyethylenesorbitan monolaurate (TWEEN®-20), and Roche Complete™ Protease Inhibitors without EDTA. Peptides and Gcg are thawed and 3-fold serially diluted in 100% DMSO (10 point concentration response curves). Next, 5 μL serially diluted compound or DMSO is transferred into Corning® 3632 clear bottom assay plates containing 45 μL assay binding buffer or unlabeled Gcg control (non-specific binding or NSB, at 1 μM final). […] Plates are sealed and mixed on a plate shaker (setting 6) for 1 minute and read with a PerkinElmer Trilux MicroBeta® scintillation counter after 12 hours of incubation/settling time at room temperature.
Data are analyzed using four-parameter (curve maximum, curve minimum, IC50, Hill slope) nonlinear regression routines (Genedata Screener, version 12.0.4, Genedata AG, Basal, Switzerland). […] Values for Ki are reported as the geometric mean, with error expressed as the standard error of the mean (SEM) and n is equal to the number of independent replicates (determined in assays performed on different days). […] SEM is only calculated when […] or greater. Means are expressed as geometric means with the standard error of the mean (SEM) and the number of replicates (n) indicated in parentheses.

[2] = target: T2, human GLP-1R (Homo sapiens, UniProt P43220); assay: [125I]-GLP-1 binding, SPA with WGA beads, 0.1% bacitracin; conditions: geometric mean, read-out: hGLP1R Ki
T2 construct: expressed in transfected cells; crude membranes
T2 sequence (P43220 24-463): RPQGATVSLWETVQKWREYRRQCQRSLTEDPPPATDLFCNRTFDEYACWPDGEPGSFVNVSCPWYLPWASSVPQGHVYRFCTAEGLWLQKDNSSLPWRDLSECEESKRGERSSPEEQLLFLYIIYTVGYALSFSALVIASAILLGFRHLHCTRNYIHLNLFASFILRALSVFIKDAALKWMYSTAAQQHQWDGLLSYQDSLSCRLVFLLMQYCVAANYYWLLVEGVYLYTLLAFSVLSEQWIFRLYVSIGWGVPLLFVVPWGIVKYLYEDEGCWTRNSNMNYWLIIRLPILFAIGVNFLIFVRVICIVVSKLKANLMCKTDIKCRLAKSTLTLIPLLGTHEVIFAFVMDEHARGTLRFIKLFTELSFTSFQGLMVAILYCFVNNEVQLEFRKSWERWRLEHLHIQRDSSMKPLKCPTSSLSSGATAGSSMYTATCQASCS
How it was run: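 Binding buffer was 25 mM HEPES pH 7.4 with 2.5 mM CaCl2, 1 mM MgCl2, 0.1% (w/v) bacitracin, 0.003% Tween-20 and EDTA-free protease inhibitors. Four-parameter regression gave IC50, converted to Ki (geometric mean, SEM, n independent days).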

Row | SMILES | Ki [1] | Ki [2]
1 | CC[C@H](C)[C@H](NC(=O)[C@H](CO)NC(=O)[C@H](Cc1ccc(O)cc1)NC(=O)[C@H](CC(=O)O)NC(=O)[C@H](CO)NC(=O)[C@@H](NC(=O)[C@H](Cc1ccccc1)NC(=O)[C@@H](NC(=O)CNC(=O)[C@H](CCC(=O)O)NC(=O)[C@@H](C)NC(=O)[C@@H](N)Cc1ccc(O)cc1)[C@@H](C)O)[C@@H](C)CC)C(=O)N[C@@H](CC(C)C)C(=O)N[C@@H](CC(C)C)C(=O)N[C@@H](CC(=O)O)C(=O)N[C@@H](CCCCN)C(=O)N[C@@H](CCCCNC(=O)COCCOCCNC(=O)COCCOCCNC(=O)CC[C@H](NC(=O)CCCCCCCCCCCCCCCCCCC(=O)O)C(=O)O)C(=O)N[C@@H](Cc1c[nH]cn1)C(=O)N[C@@H](CCC(N)=O)C(=O)N[C@@H](CCC(N)=O)C(=O)N[C@@H](CC(=O)O)C(=O)N[C@@H](Cc1ccccc1)C(=O)N[C@H](C(=O)N[C@@H](CC(N)=O)C(=O)N[C@@H](Cc1ccc(O)cc1)C(=O)N[C@@H](CC(C)C)C(=O)N[C@@H](CC(C)C)C(=O)N[C@@H](C)C(=O)N[C@@H](CCC(N)=O)C(=O)NCC(=O)N1CCC[C@H]1C(=O)N[C@@H](CO)C(=O)N[C@@H](CO)C(=O)NCC(=O)N[C@@H](C)C(=O)N1CCC[C@H]1C(=O)N1CCC[C@H]1C(=O)N1CCC[C@H]1C(=O)N[C@@H](CO)C(N)=O)C(C)C [Example 15] (H-Y[dA]EGTFISDYSILLDKK([AEEA-AEEA-γGlu-C20 diacid])HQQDFVNYLLAQGPSSGAPPPS-NH2) | > 254 nM | > 236 nM
2 | CC[C@H](C)[C@H](NC(=O)[C@H](CO)NC(=O)[C@H](Cc1ccc(O)cc1)NC(=O)[C@H](CC(=O)O)NC(=O)[C@H](CO)NC(=O)[C@@H](NC(=O)[C@H](Cc1ccccc1)NC(=O)[C@@H](NC(=O)CNC(=O)[C@H](CCC(=O)O)NC(=O)[C@@H](C)NC(=O)[C@@H](N)Cc1ccc(O)cc1)[C@@H](C)O)[C@@H](C)CC)C(=O)N[C@@H](CC(C)C)C(=O)N[C@@H](CC(C)C)C(=O)N[C@@H](CC(=O)O)C(=O)N[C@@H](CCCCN)C(=O)N[C@@H](CCCCNC(=O)COCCOCCNC(=O)COCCOCCNC(=O)CC[C@H](NC(=O)CCCCCCCCCCCCCCCCC(=O)O)C(=O)O)C(=O)N[C@@H](C)C(=O)N[C@@H](CCC(N)=O)C(=O)NC(C)(C)C(=O)N[C@@H](CC(=O)O)C(=O)N[C@@H](Cc1ccccc1)C(=O)N[C@H](C(=O)N[C@@H](CCC(=O)O)C(=O)N[C@@H](Cc1c[nH]c2ccccc12)C(=O)N[C@@H](CC(C)C)C(=O)N[C@@H](CC(C)C)C(=O)N[C@@H](C)C(=O)N[C@@H](CCC(N)=O)C(=O)NCC(=O)N1CCC[C@H]1C(=O)N[C@@H](CO)C(=O)N[C@@H](CO)C(=O)NCC(=O)N[C@@H](C)C(=O)N1CCC[C@H]1C(=O)N1CCC[C@H]1C(=O)N1CCC[C@H]1C(=O)N[C@@H](CO)C(N)=O)C(C)C [Example 16] (H-Y[dA]EGTFISDYSILLDKK([AEEA-AEEA-γGlu-C18 diacid])AQ[Aib]DFVEWLLAQGPSSGAPPPS-NH2) | 549 nM | 99.2 nM
3 | CC[C@H](C)[C@H](NC(=O)[C@H](CO)NC(=O)[C@H](Cc1ccc(O)cc1)NC(=O)[C@H](CC(=O)O)NC(=O)[C@H](CO)NC(=O)[C@@H](NC(=O)[C@H](Cc1ccccc1)NC(=O)[C@@H](NC(=O)CNC(=O)[C@H](CCC(=O)O)NC(=O)[C@@H](C)NC(=O)[C@@H](N)Cc1ccc(O)cc1)[C@@H](C)O)[C@@H](C)CC)C(=O)N[C@@H](CC(C)C)C(=O)N[C@@H](CC(C)C)C(=O)N[C@@H](CC(=O)O)C(=O)N[C@@H](CCCCN)C(=O)N[C@@H](CCCCNC(=O)COCCOCCNC(=O)COCCOCCNC(=O)CC[C@H](NC(=O)CCCCCCCCCCCCCCCCC(=O)O)C(=O)O)C(=O)N[C@@H](C)C(=O)N[C@@H](CCC(N)=O)C(=O)NC(C)(C)C(=O)N[C@@H](CC(=O)O)C(=O)N[C@@H](Cc1ccccc1)C(=O)N[C@H](C(=O)N[C@@H](CC(N)=O)C(=O)N[C@@H](Cc1c[nH]c2ccccc12)C(=O)N[C@@H](CC(C)C)C(=O)N[C@@H](CC(C)C)C(=O)N[C@@H](CCC(=O)O)C(=O)N[C@@H](CCC(N)=O)C(=O)NCC(=O)N1CCC[C@H]1C(=O)N[C@@H](CO)C(=O)N[C@@H](CO)C(=O)NCC(=O)N[C@@H](C)C(=O)N1CCC[C@H]1C(=O)N1CCC[C@H]1C(=O)N1CCC[C@H]1C(=O)N[C@@H](CO)C(N)=O)C(C)C [Example 17] (H-Y[dA]EGTFISDYSILLDKK([AEEA-AEEA-γGlu-C18 diacid])AQ[Aib]DFVNWLLEQGPSSGAPPPS-NH2) | 274 nM | 106 nM
4 | CC[C@H](C)[C@H](NC(=O)[C@H](CO)NC(=O)[C@H](Cc1ccc(O)cc1)NC(=O)[C@H](CC(=O)O)NC(=O)[C@H](CO)NC(=O)[C@@H](NC(=O)[C@H](Cc1ccccc1)NC(=O)[C@@H](NC(=O)CNC(=O)[C@H](CCC(=O)O)NC(=O)[C@@H](C)NC(=O)[C@@H](N)Cc1ccc(O)cc1)[C@@H](C)O)[C@@H](C)CC)C(=O)N[C@@H](CC(C)C)C(=O)N[C@@H](CC(C)C)C(=O)N[C@@H](CC(=O)O)C(=O)N[C@@H](CCCCN)C(=O)N[C@@H](CCCCNC(=O)COCCOCCNC(=O)COCCOCCNC(=O)CC[C@H](NC(=O)CCCCCCCCCCCCCCCCC(=O)O)C(=O)O)C(=O)N[C@@H](C)C(=O)N[C@@H](CCC(N)=O)C(=O)NC(C)(C)C(=O)N[C@@H](CC(=O)O)C(=O)N[C@@H](Cc1ccccc1)C(=O)N[C@H](C(=O)N[C@@H](CC(N)=O)C(=O)N[C@@H](Cc1ccncc1)C(=O)N[C@@H](CC(C)C)C(=O)N[C@@H](CC(C)C)C(=O)N[C@@H](C)C(=O)N[C@@H](CCC(N)=O)C(=O)NCC(=O)N1CCC[C@H]1C(=O)N[C@@H](CO)C(=O)N[C@@H](CO)C(=O)NCC(=O)N[C@@H](C)C(=O)N1CCC[C@H]1C(=O)N1CCC[C@H]1C(=O)N1CCC[C@H]1C(=O)N[C@@H](CO)C(N)=O)C(C)C [Example 18] (H-Y[dA]EGTFISDYSILLDKK([AEEA-AEEA-γGlu-C18 diacid])AQ[Aib]DFVN[4Pal]LLAQGPSSGAPPPS-NH2) | 463 nM | 158 nM
5 | CC[C@H](C)[C@H](NC(=O)[C@H](CO)NC(=O)[C@H](Cc1ccc(O)cc1)NC(=O)[C@H](CC(=O)O)NC(=O)[C@H](CO)NC(=O)[C@@H](NC(=O)[C@H](Cc1ccccc1)NC(=O)[C@@H](NC(=O)CNC(=O)[C@H](CCC(=O)O)NC(=O)[C@@H](C)NC(=O)[C@@H](N)Cc1ccc(O)cc1)[C@@H](C)O)[C@@H](C)CC)C(=O)N[C@@H](CC(C)C)C(=O)N[C@@H](CC(C)C)C(=O)N[C@@H](CC(=O)O)C(=O)N[C@@H](CCCCN)C(=O)N[C@@H](CCCCNC(=O)COCCOCCNC(=O)COCCOCCNC(=O)CC[C@H](NC(=O)CCCCCCCCCCCCCCCCC(=O)O)C(=O)O)C(=O)N[C@@H](C)C(=O)N[C@@H](CCC(N)=O)C(=O)NC(C)(C)C(=O)N[C@@H](CC(=O)O)C(=O)N[C@@H](Cc1ccccc1)C(=O)N[C@H](C(=O)N[C@@H](CC(N)=O)C(=O)N[C@@H](Cc1c[nH]c2ccccc12)C(=O)N[C@@H](CC(C)C)C(=O)N[C@@H](CC(C)C)C(=O)N[C@@H](C)C(=O)NCC(=O)NCC(=O)N1CCC[C@H]1C(=O)N[C@@H](CO)C(=O)N[C@@H](CO)C(=O)NCC(=O)N[C@@H](C)C(=O)N1CCC[C@H]1C(=O)N1CCC[C@H]1C(=O)N1CCC[C@H]1C(=O)N[C@@H](CO)C(N)=O)C(C)C [Example 19] (H-Y[dA]EGTFISDYSILLDKK([AEEA-AEEA-γGlu-C18 diacid])AQ[Aib]DFVNWLLAGGPSSGAPPPS-NH2) | 335 nM | 15.2 nM

— patent US12723063B2, “GIPR-agonist compounds” (Eli Lilly and Company, priority 2019, dated 2026)
